The values that follow are results of earlier work, collected in patent US20110268798A1, “ORALLY DISNTEGRATING TABLETS FOR THE TREATMENT OF PAIN” (ADD ADVANCED DRUG DELIVERY TECHNOLOGIES LTD, priority 2009, published 2011).

Test in data set [1]: not given
The source holds these as a separate data set.

Molecules are shown by their SMILES.

As for `CC(=O)Nc1ccc(O)cc1` [Acetaminophen, N-(4-hydroxyphenyl)acetamide], the solubility in ether result is on record as “very slightly soluble” and the solubility in water entry is “sparingly soluble”. For the same compound, the “solubility in methylene chloride” value (methylene chloride) is on record as “very slightly soluble”.

Turning to `CC(=O)Oc1ccccc1C(=O)O` [Acetylsalicylic acid, 2(acetyloxy)benzoic acid], the solubility in ether result is “soluble” and the solubility in water entry is “slightly soluble”. Under “alcohol”, the solubility in alcohol entry is on record as “freely soluble”. In addition, the solubility in chloroform entry (chloroform) is on record as “soluble”. Besides, the “stability in air / moisture” value in data set [1] (dry air, moisture) was “stable in dry air but hydrolyses in contact with moisture to acetic and salicylic acids”. For the same compound, the “stability versus pH” value in data set [1] (pH) is reported as “pH-dependent stability profile”. In data set [1] (temperature), the stability versus temperature result is reported as “sensitive to temperature”.
